Assay results published in patent US6673902B2, “Cyclin D binding factor, and uses thereof” (St. Jude Children's Research Hospital, priority 1996, dated 2004).

Key:
ARF-null MEFs = assay: BrdU incorporation / cell cycle arrest in ARF-null MEFs; type: cell-based, mouse; conditions: retroviral infection
Protocol: BrdU incorporation and immunofluorescence. Wild-type or ARF-null MEFs (4×10^4 cells) were seeded on gelatin-coated coverslips 16 hours before virus infection. Cells were infected three times with empty vector, or vectors expressing murine DMP1, human c-Myc, human E2F-1, or human Ets1. Cells were labeled 36 hours after virus infection with bromodeoxyuridine (BrdU, Sigma) for 14 hours in complete medium. For pulse labeling, MEFs were treated with 2 μM4-HT for 36 hours and labeled with BrdU for three hours at different intervals throughout the inductive phase. Cells were fixed in ice-cold methanol-acetone (1:1) for 10 min at −20° C. and then were stained with affinity-purified antibodies to DMP1 (AF) [Hirai and Sherr, Mol. Cell. […]
Based on the above observations, it was determined as to whether introduction of DMP1 would induce synthesis of the endogenous ARF protein in normal diploid fibroblast strains. […] Although the blot was normalized for protein input, the levels of p19^ARF induced by DMP1 were calculated to be 2-fold higher than those induced by Myc, because fewer cells were productively infected with the DMP1 virus in this experiment (see FIG. 15A).

32P-BS2 Probe = assay: EMSA with 32P-BS2 probe on transfection lysates of NIH-3T3 fibroblasts; type: binding; conditions: EMSA, 32P-BS2 probe, lysates of transfected NIH-3T3 fibroblasts
Protocol: Double-stranded oligonucleotides containing potential DMP1 binding sites (BS1 and BS2) and mutated versions (M1-M4) (FIG. 5B) are end-labeled with ^32P using the Klenow fragment of DNA polymerase and α-^32P-dATP (6000 Ci/mmol; Dupont NEN) (8). Nuclear extracts from mouse NIH-3T3 or CTLL cells are prepared with buffer containing 0.4 M NaCl (2). Mammalian cell extracts (15 μg protein) or Sf9 lysates (corresponding to 5×10^2 infected cells) containing ˜4 ng recombinant DMP1 are mixed with 3 ng of ^32P-labeled probe (1×10^5 cpm) in 15 ul Binding buffer containing 2.5 μg of poly(dI-dC) and 2.5 μg BSA and incubated at 4° C. for 30 minutes. For competition experiments, the indicated amounts of unlabeled oligonucleotides are added to the reactions before addition of the labeled probe. In some experiments, a bacterially produced GST-Ets2 fusion protein containing the complete Ets2 DNA-binding domain (10) is used in place of Sf9 extracts containing recombinant DMP1. Protein-DNA complexes are separated on nondenaturing 4% polyacrylamide gels as described (8). Where indicated, antiserum to DMP1 together with 2.5 μg salmon testis DNA (Sigma; used to reduce nonspecific DNA binding activity caused by serum addition) is preincubated with extracts for 30 minutes at 4° C. prior to initiation of binding reactions. Immune complexes are either removed by adsorption to protein A-Sepharose beads (immunodepletion experiments) or are allowed to remain (“supershift” experiments).
A series of deletion mutants and a point mutant of DMP1, K319E, (in which the lysine at position 319 of SEQ ID NO:1 is replaced by a glutamic acid) were prepared and used to determine the DNA-binding domain of DMP1 by electrophoretic mobility shift assay (EMSA) using a ^32P labeled BS2 probe. The DNA-binding domain of DMP1 was mapped to a central region containing the three MYB repeats plus adjacent flanking sequences: a BstEII to NcoI fragment encoding amino acids 87-458 of SEQ ID NO:1 (Table 1). This region alone was necessary and sufficient for DNA binding.

[1] = system: DMP1-responsive promoter (pGL2BS2); assay: Transactivation of luciferase reporter plasmid under control of a DMP1-responsive promoter in NIH-3T3 fibroblasts; type: cell-based, mouse; conditions: vector without insert set to 1.0
Source text: Coexpression of a D-type cyclin with DMP1 overrides the ability of DMP1 to transactivate a luciferase gene under the control of an artificial DMP1-responsive promoter (Table 4), as well as the ability of DMP1 to inhibit cell growth.

NIH-3T3 fibroblasts = assay: BrdU incorporation in transfected NIH-3T3 fibroblasts; type: cell-based, mouse; conditions: for % Cells BrdU Positive: Table 2, expression vector 3 μg/10 ml; for % Cells BrdU Positive in 10% FCS: nonstarved cells; for % Cells BrdU Positive in 0.1% FCS: starved cells
Protocol: BrdU is added to NIH-3T3 cells after the experimental treatment and the cells were incubated for twenty-two hours in DMEM plus 10% fetal calf serum (FCS). The cells were then stained for DMP1 expression and/or BrdU incorporation. The nucleic acids encoding the wildtype DMP1 and the deletion and point mutants had been constructed so as to express the corresponding proteins with Flag-tags. To stain for DMP1 expression, mouse monoclonal anti-Flag antibodies (12 μg/ml) [Kodak] were incubated with the cells in TBS-Ca^+ without FCS for one hour at room temperature. After washing the cells, horse anti-mouse biotinylated antibodies at a 1:500 dilution were added to the cells in TBS plus 5% FCS and incubated for 30 minutes at room temperature. After washing the cells, strefptavidin linked to Texas red [Amersham] was then added at a 1:500 dilution for 30 minutes at room temperature. To stain for BrdU incorporation, 1.5N HCl was added to the cells for ten minutes at room temperature to denature the DNA. After washing the cells, sheep anti-BrdU antibodies [Fitzgerald] at a 1:12 dilution were then added for one hour at room temperature. After washing the cells, rabbit FITC-conjugated anti-sheep antibodies [Vector] at 1:100 dilution was then incubated for 30 minutes at room temperature.
NIH-3T3 cells were placed on cover slides and transfected with the expression vectors (pFLEX-DMP1 or the corresponding vector containing the deletion or point mutants of mouse DMP1 plus or minus cyclin D or E) for fourteen hours. The cells were then washed twice and DMEM plus 10% FCS was added and the cells incubated for eight hours. Half of the cells were starved by washing twice with 0.1% FCS, and then incubated for twenty-four hours in 0.1% FCS in DMEM. The remaining cells were not starved but were incubated for twenty-four hours in DMEM plus 10% FCS without washing. BrdU was added to both groups of cells and the cells were incubated for twenty-two hours in DMEM plus 10% FCS.
The cells were then restimulated to enter the cell cycle synchronously with DMEM plus 10% FCS. At the same time, 5′-Bromo-2′ Deoxyuridine (BrdU) was added to the medium. The cells were fixed 22 hours later in methanol acetone (1:1) and stained for BrdU incorporation and DMP1 expression as described in the Materials and Methods.

[2] = expression vector 3 μg/10 ml, pGL2BS2 8 μg/10 ml
[3] = additive None, labeled 22 hours

| Luciferase Activity ([1]; Table 4, DMP1 coexpressed with the additive named as label (DMP1 row: no additive)) | Luciferase Activity [1, 2] | Substance | cell cycle arrest (ARF-null MEFs) | 32P-labeled Band (32P-BS2 Probe) | % Cells BrdU Positive (NIH-3T3 fibroblasts) [%] | % Cells BrdU Positive in 10% FCS (NIH-3T3 fibroblasts; [3]) [%] | % Cells BrdU Positive in 10% FCS (NIH-3T3 fibroblasts; additive cyclin D2) [%] | % Cells BrdU Positive in 10% FCS (NIH-3T3 fibroblasts; additive cyclin E) [%] | % Cells BrdU Positive in 0.1% FCS (NIH-3T3 fibroblasts; [3]) [%] | % Cells BrdU Positive in 0.1% FCS (NIH-3T3 fibroblasts; additive cyclin D2) [%] | % Cells BrdU Positive in 0.1% FCS (NIH-3T3 fibroblasts; additive cyclin E) [%] |
| --- | --- | --- | --- | --- | --- | --- | --- | --- | --- | --- | --- |
| 8.4 | 8.4 | DMP1: murine cyclin D-associated myb-like transcription factor, 761 amino acids, SEQ ID NO:1 | refractory | Yes | 12 | 30 | 80 | 82 | 15 | 57 | 56 |
| – | 2.3 | M3: DMP1 deletion mutant (NcoI), amino acids 1-458 of SEQ ID NO:1 | – | Yes | 24 | – | – | – | – | – | – |
